“Also recorded” adds a separate entry of the source.
Key:
[1] = system: NCI-H460 human lung cancer cells; assay: NCI-H460 lung cancer xenograft in BALB/c nude mice: tirapazamine plus vascular disrupting agent; format: in vivo, mouse; conditions: combretastatin A4 10 mg/kg i.v. or DMXAA 20 mg/kg i.v., 3-5 min after tirapazamine 30 mg/kg i.p.
Protocol: Materials and methods: Human lung cancer NCI-H460 cells were purchased from ATCC and used in this study. Cells were sub-cultured within 5 passages before inoculated into the mice. After the animals' acclimation period, approximately 1.5×10^6 NCI-H460 cells in 200 μL of serum-free media/matrigel (50:50 v/v) were injected subcutaneously to each mouse under anesthesia with 3-4% isoflurane. BALB/c nude mice, male, about 4-5 weeks and 18-20 g in weight were purchased from Shanghai SLAC Laboratory Animal Co. Ltd., China and housed in vivarium in 3-5 mice/cage by treatment group. Mice had free access to food (irradiated, Shanghai SLAC Laboratory Animal Co. Ltd. China) and water (municipal tap water filtered by Mol Ultrapure Water System).
Mice from each group were euthanized with CO2 asphyxiation followed by cervical dislocation at day 18 after the first dose, tumors were collected, weighed, and their pictures taken. The formalin fixed tumors were used for histopathology work. After formalin fixation, the tumors were paraffin embedded to get FFPE blocks. One block was made for each tumor chunk from one mouse. The FFPE blocks were sectioned at about 4 μm thick and processed for H&E staining, histopathology examination, and quantification of tumor necrosis. Detailed results are discussed further below. […]

[2] = system: hepatocellular carcinoma (HCC) in HBx transgenic mice; assay: Tirapazamine or doxorubicin plus left hepatic artery ligation (HAL) in tumor-bearing HBx transgenic mice: tumor necrosis by H&E histology; format: in vivo, mouse; conditions: for necrosis of HCCs in the territory of the left HAL, Day 7 (H&E): tirapazamine 3 mg/kg (n=3) or doxorubicin 10 mg/kg (n=2) IV + left HAL 40 min; for necrosis in the HCC within the territory of HAL, Day 1 post-treatment: tirapazamine 3 mg/kg or doxorubicin 10 mg/kg IV tail vein + transient left HAL, n=1 per group, histopathology
Protocol: Materials and methods: All the HBx transgenic mice were bred and followed-up in a specific pathogen-free facility; the tails of individual mice were subsequently collected for the genotyping process on weaning at 3 weeks of age. […] Transgenic mice having tumors 0.5-2 cm in diameter were used for the study.
(§1) Treatment of tumor-bearing HBx mice with tirapazamine and hepatic artery ligation: The HBx transgenic mice were subjected to the left hepatic artery ligation for 40 min and the silk ligation was subsequently untied. During the studies on the drug effects, 0.9% saline, doxorubicin (10 mg/kg), or TPZ (3 mg/kg) were injected into the tail vein of each mouse for 7 min before the hepatic artery ligation. After completion of the injection, a midline laparotomy was performed to expose the left lobe of liver and liver hilum to dissect the left or common hepatic artery for transient ligation. All mice were anaesthetized with intraperitoneal injection of 400 mg/kg avertin (Sigma-Aldrich, St. Louis, Mo., USA) during experiments. Serial serum samples were collected for evaluating the ALT and total bilirubin by using ARKRAY Spotchem EZ Chemistry Analyzer SP-4430 (Arkray, Inc., Kyoto, Japan) within the first week. After 1 or 7 days, the liver tissues were collected for HE staining.
Histology and morphometric analysis of tumor necrosis: For each mouse, the liver tissue containing the whole tumor and the adjacent non-tumorous region were fixed overnight in 10% formaldehyde and embedded in paraffin. The liver tissue sections (3 μm thickness) crossing the whole tumor were subjected to hematoxylin and eosin (H&E) staining for histological analysis. The percentage of necrosis in each tumor was quantified by dividing the necrotic area by the total tumor area in five cross sections covering the whole tumor, by using the ImageJ software (Version 1.46r, National Institutes of Health, Bethesda, Md., USA).
The HBx transgenic mice spontaneously develop hepatocellular carcinoma at approximately 18 months. […] Next, the efficacy of tirapazamine in combination with HAL was investigated and compared with a commonly used chemotherapy agent, doxorubicin, in TACE. A small group was first tested to compare the effects of saline (n=1), doxorubicin (10 mg/kg, n=1) and tirapazamine (3 mg/kg, n=1) to treat HBx transgenic mice that had palpable HCC, along with transient left HAL. Mice were sacrificed 1 day after treatment with tirapazamine and transient left HAL.
The same study was conducted to examine the histopathology changes at 7 days post treatment. The number of mice used for each group were saline (n=2), doxorubicin (10 mg/kg, n=2) and tirapazamine (3 mg/kg, n=3).

[3] = mouse, in vivo
Protocol: as §1

[4] = system: hepatocellular carcinoma; assay: Phase I dose-defining study of tirapazamine combined with trans-arterial embolization (TAE): efficacy by contrast MRI, modified RECIST; format: in vivo, human; conditions: for response on contrast enhanced MRI at 6th week after embolization: individual patients/lesions treated with tirapazamine before TAE
Text: (§2) In order to test the clinical tolerability and efficacy of tirapazamine combined with TAE in humans, a phase I dose-defining study was initiated in US major medical centers to examine the tolerability, preliminary efficacy and determine the recommended phase 2 dose (RP2D) of tirapazamine when combined with TAE. HCC patients enrolled were Child-Pugh class A, were not surgical candidates and had up to 4 tumor lesions with no tumor lesion size greater than 10 cm and were suitable for embolization. The results of the first 12 evaluable patients were available for analysis.
(§3) Three patients were enrolled in either cohort.
The preliminary efficacy of the first 12 patients was analyzed and is exemplified in FIG. 4. Efficacy outcome is read by contrast […] based on modified Response Evaluation Criteria In Solid Tumors (RECIST) criteria so that only the size of the viable tumor was measured. […] Three additional patients had over 30% necrosis or partial response (PR). The overall response rate (CR+PR) was 83%.

[5] = rat, in vivo
[6] = Phase I dose-defining study of tirapazamine combined with TAE: tolerability; format: in vivo, human; conditions: 3 patients per cohort
Text: as §2, §3

SMILES: COc1ccc(/C=C\c2cc(OC)c(OC)c(OC)c2)cc1O [combretastatin A4]
- effect on tumor vasculature [1]: nearly immediate shutdown of the tumor vasculature

SMILES: COc1cccc2c1C(=O)c1c(O)c3c(c(O)c1C2=O)C[C@@](O)(C(=O)CO)C[C@@H]3O[C@H]1C[C@H](N)[C@H](O)[C@H](C)O1 [doxorubicin]
- necrosis of HCCs in the territory of the left HAL, Day 7 (H&E) [2]: Little to no pathological changes
- necrosis in the HCC within the territory of HAL, Day 1 post-treatment [2]: about 5%
- total bilirubin in serum [3]: within the normal range

SMILES: Nc1n[n+]([O-])c2ccccc2[n+]1[O-] [tirapazamine]
- tumor necrosis at dissection on Day 7 (pale color) ([2]; drug IV + transient HAL, FIG. 2D): evident that tumor necrosis occurred
- necrosis of HCCs in the territory of the left HAL, Day 7 (H&E) [2]: 90-99%
- inflammatory cell infiltration at margin of necrotic tumor ([2]; tirapazamine 3 mg/kg IV + left HAL, day 7, FIG. 3 inserts): high degree of inflammatory cell infiltration; also recorded: very strong inflammatory infiltrates
- necrosis in the HCC within the territory of HAL, Day 1 post-treatment [2]: more than 99%
- effective dose combined with transient HAL ([2]; titration study, HBx transgenic mouse model): 3 mg/kg
- total bilirubin in serum [3]: within the normal range
- overall response rate (CR+PR) ([4]; first 12 evaluable patients): 83%
- patients with over 30% necrosis or partial response (PR) ([4]; first 12 evaluable patients): Three
- response on contrast enhanced MRI at 6th week after embolization [4]: complete response (CR)
- response on contrast enhanced MRI at 6th week after embolization ([4]; listed as Tirapazamine): two treated lesions achieved CR
- largest diameter of untreated lesion at 6th week follow-up ([4]; one patient, baseline 15 mm, two other lesions (26 and 10 mm) treated with tirapazamine + TAE): 9 mm
- complete response (CR) by modified RECIST ([4]; single treatment of tirapazamine with TAE, first 12 patients): 6/12
- tolerability of IA administration followed by hepatic artery ligation [5]: well tolerated profile
- toxicities / dose limiting toxicities ([6]; intra-arterial (IA) via hepatic artery 5 and 10 mg/m^2 + TAE): no observed toxicities or dose limiting toxicities (DLT)
- toxicities / dose limiting toxicities ([6]; systemic IV infusion 5 and 10 mg/m^2 + TAE): no observed toxicities or dose limiting toxicities (DLT)

SMILES: Cc1ccc2c(=O)c3cccc(CC(=O)O)c3oc2c1C [DMXAA, 5,6-Dimethylxanthenone-4-acetic acid]
- effect on tumor vasculature [1]: nearly immediate shutdown of the tumor vasculature

— US11534445B2, “Compositions and methods for immune-mediated cancer therapy” (Teclison Limited, priority 2015, dated 2022)
